Data reported in article PMC11962044, “Experimental and theoretical studies on structural changes in the microtubule affinity-regulating kinase 4 (MARK4) protein induced by N-hetarenes: a new class of therapeutic candidates for Alzheimer’s disease” (Frontiers in Medicine, 2025).
Read-outs that look alike come from different tables or passages of the source.

What was measured:
MARK4 enzyme = conditions: cited from earlier work
MARK4 [1] = target: T1, MARK4 (Homo sapiens, UniProt Q96L34); assay: ATPase inhibition assay (Malachite green) with purified MARK4; format: biochemical; conditions: MARK4 5 μM, ATP 200 μM, ligand 0–10 μM, 1 h at 25°C, read-out: IC50 against MARK4
T1 sequence (Q96L34 1-752): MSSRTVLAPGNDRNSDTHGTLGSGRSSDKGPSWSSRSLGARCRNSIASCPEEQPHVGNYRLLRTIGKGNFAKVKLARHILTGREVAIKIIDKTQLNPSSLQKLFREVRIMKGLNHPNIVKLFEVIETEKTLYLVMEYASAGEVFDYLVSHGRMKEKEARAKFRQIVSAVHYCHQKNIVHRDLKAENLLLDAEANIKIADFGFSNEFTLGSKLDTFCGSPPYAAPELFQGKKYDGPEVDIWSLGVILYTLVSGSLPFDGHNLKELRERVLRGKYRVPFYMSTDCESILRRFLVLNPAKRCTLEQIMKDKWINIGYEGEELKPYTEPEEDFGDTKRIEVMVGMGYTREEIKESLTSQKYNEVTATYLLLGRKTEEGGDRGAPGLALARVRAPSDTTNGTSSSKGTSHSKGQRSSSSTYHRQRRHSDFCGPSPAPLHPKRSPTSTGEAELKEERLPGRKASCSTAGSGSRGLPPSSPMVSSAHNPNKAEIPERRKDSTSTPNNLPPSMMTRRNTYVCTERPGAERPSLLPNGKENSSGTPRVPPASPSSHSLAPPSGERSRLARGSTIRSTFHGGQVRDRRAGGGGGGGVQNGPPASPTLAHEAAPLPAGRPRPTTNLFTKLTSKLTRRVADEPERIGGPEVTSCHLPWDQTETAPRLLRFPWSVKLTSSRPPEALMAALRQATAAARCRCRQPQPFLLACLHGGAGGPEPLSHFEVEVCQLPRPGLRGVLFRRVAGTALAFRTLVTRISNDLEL
Method: Purified MARK4 was used to conduct ATPase inhibition experiment following the reported method ([18], [30]). The concentration of the purified protein used was 5 μM, the ligand concentration was 0–10 μM and the substrate (ATP) was 200 μM. The ligand concentration was increased gradually against a given concentration of MARK4. The experiment involved combining MARK4 with freshly prepared ATP, resulting in a final reaction mixture volume of 100 μL. This mixture was incubated for 1 h at 25°C. This is followed by the addition of Malachite green solution (200 μL) to quench the reaction. The samples were allowed to incubate at room temperature for color development. Finally, the reaction mixture (100 μL) was filled into 96-well plates and analyzed using a multiscan ELISA reader (λ = 620 nm). All experimental reactions were conducted in triplicate to ensure statistical reliability.

MARK4 [2] = target: T1, MARK4; assay: Fluorescence quenching binding assay; conditions: modified Stern-Volmer equation; excitation 280 nm; read-out: binding constant (K) (converted)
Method: A fluorescence-based binding assay was conducted to evaluate the binding efficiency of ligands. During the titration, the concentration of the pure MARK4 protein was kept constant while increasing concentrations of the ligand ([31]). The emission data were collected using a Jasco FP-6200 spectrofluorimeter (Japan), with a slit width of 10 nm and medium sensitivity. The samples were excited at 280 nm, and the emission spectra were recorded. Blank subtracted spectra are reported, and each measurement was performed in triplicate. For fluorescence values, we took the inner filter effect into account ([32]). The binding constant (K) was calculated using the Stern-Volmer (SV) (Equations 1, 2). (1) F0/F=1+KsvC (2) logF0−F/F=logK+nlogC Where F0 denotes the fluorescence intensity of the protein in the absence of ligands, whereas F indicates the fluorescence intensity when ligands are present. K represents the binding constant, n indicates the number of binding sites, and C refers to the concentration of the ligand.

[3] = read-out: IC50 MARK4 enzyme in vitro

Row | Compound | IC50 (MARK4 [1]) [µM] | further results
1 | O=C(/C=C/c1ccc(O)c(O)c1)O[C@H](Cc1ccc(O)c(O)c1)C(=O)O [Rosmarinic acid] | – | IC50 (MARK4 enzyme; reference inhibitor of MARK4, read-out: IC50 of the reference inhibitor): ~6.2 µM
2 | N=C(N)N1CCN(c2cc(-c3ccc(Cl)c(Cl)c3)ncn2)CC1 [Compound 6, 4-(6-(3,4-Dichlorophenyl)pyrimidin-4-yl)piperazine-1-carboximidamide] | 11.8 ± 1.19 | –
3 | COc1cc2c(cc1OC)C(=O)C(CC1CCN(Cc3ccccc3)CC1)C2 (centres unmarked) [donepezil] | – | IC50 (MARK4 enzyme; [3]): 5.3 µM
4 | N=C(N)N1CCN(c2cc(-c3ccc(F)c(Cl)c3)ncn2)CC1 [Compound 7, 4-(6-(3-Chloro-4-fluorophenyl)pyrimidin-4-yl)piperazine-1-carboximidamide] | 16.5 ± 1.71 | –
5 | CCN(C)C(=O)Oc1cccc([C@H](C)N(C)C)c1 [rivastigmine] | – | IC50 (MARK4 enzyme; [3]): 6.74 µM
6 | N=C(N)N1CCN(c2cc(-c3cc4ccccc4s3)ncn2)CC1 [Compound 9, 4-(6-(benzo[b]thiophen-2-yl)pyrimidin-4-yl)piperazine-1-carboximidamide] | 6.68 ± 0.8 | Kd (MARK4 [2]): 8.77 µM

Second part, led by results:

Row | IC50 (MARK4 [1]) [µM] | Compound | further results
7 | 7.28 ± 0.49 | N=C(N)N1CCN(c2cc(-c3ccc(OC(F)(F)F)cc3)ncn2)CC1 [Compound 10, 4-(6-(4-(Trifluoromethoxy)phenyl)pyrimidin-4-yl)piperazine-1-carboximidamide] | –
8 | 15.8 ± 0.92 | N=C(N)N1CCN(c2cc(-c3ccc(C(F)(F)F)cc3)ncn2)CC1 [Compound 8, 4-(6-(4-(Trifluoromethyl)phenyl)pyrimidin-4-yl)piperazine-1-carboximidamide] | –
9 | 5.35 ± 0.22 | Cc1ccc(-c2cc(N3CCN(C(=N)N)CC3)ncn2)cc1 [Compound 5, 4-(6-(p-Tolyl)pyrimidin-4-yl)piperazine-1-carboximidamide] | Kd (MARK4 [2]): 6.67 µM
